Here are results for six compounds from ChEMBL document CHEMBL1149984, “Hygromycin A: preparation of aminocyclitol analogs defining the minimum functionality required for biological activity” (1992).

≈ marks a conversion by molar mass, not a printed value.

One experiment deals with Pasteurella multocida. The experiment can be described thus: Minimum inhibitory concentration against Pasteurella multocida was determined. The class given is functional.
Experiment [1] relates to Brachyspira hyodysenteriae. Nature of the experiment: Minimum inhibitory concentration against Serpulina hyodysenteriae was determined. The class given is functional.
The mark [2] stands for this setting: Pasteurella multocida, read-out: MIC.
[3] abbreviates: Brachyspira hyodysenteriae, read-out: MIC.

As for `C/C(=C\c1ccc(O[C@@H]2O[C@H]([C@H](C)O)[C@@H](O)[C@@H]2O)c(O)c1)C(=O)N[C@@H]1CCCC[C@@H]1O`, the MIC (in the experiment on Pasteurella multocida (setting [2]); in experiment [1] (setting [3])) was greater than 200 µg/mL each time.
Regarding `C=CCOc1ccc(/C=C(\C)C(=O)N[C@@H]2[C@H](O)[C@@H](O)CC[C@@H]2O)cc1O`, the MIC with Pasteurella multocida is greater than 200 µg/mL; in experiment [1] it was 100 µg/mL (≈ 275 µM).
As to `C=CCOc1ccc(/C=C(\C)C(=O)N[C@@H]2[C@H](O)CCC[C@@H]2O)cc1O`, the MIC was found to be 100 µg/mL (≈ 288 µM) in the experiment on Pasteurella multocida (setting [2]) and 12.5 µg/mL (≈ 36 µM) in experiment [1] (setting [3]).
Taken in the same sequence, the figures for `C=CCOc1ccc(/C=C(\C)C(=O)N[C@@H]2[C@H](O)[C@@H](O)[C@H]3OCO[C@H]3[C@@H]2O)cc1O` were 1.56 µg/mL (≈ 3.83 µM) and 0.78 µg/mL (≈ 1.91 µM).
With `C=CCOc1ccc(/C=C(\C)C(=O)N[C@@H]2[C@H](O)[C@@H](O)CC[C@@H]2O)cc1O` (racemic), the MIC in the experiment on Pasteurella multocida turned out to be 25 µg/mL (≈ 68.8 µM); in experiment [1], 6.25 µg/mL (≈ 17.2 µM).
Turning to `CC(=O)[C@H]1O[C@@H](Oc2ccc(/C=C(\C)C(=O)N[C@@H]3[C@H](O)[C@@H](O)[C@H]4OCO[C@H]4[C@@H]3O)cc2O)[C@@H](O)[C@@H]1O` [HYGROMYCIN A], the MIC (in the experiment on Pasteurella multocida (setting [2]); in experiment [1] (setting [3])) was 1.56 µg/mL (≈ 3.05 µM) throughout.

By MIC is commonly meant the smallest concentration in the dilution series that meets the test's criterion for growth inhibition.
